System: T. cruzi
Test: 2D-GE plasma proteome profile (differential protein expression) of T. cruzi-infected rats treated with PBN and/or BZ
Format: in vivo, rat
Settings: for expression of inflammation-associated plasma proteins: APOH
Excerpt: Certain embodiments include biomarkers identified in a previous study. Parasite persistence and oxidative damage in the heart are known to be of pathological significance during Chagas disease (Zacks et al., (2005) An Acad Bras Cienc, 77, 695-715; Gupta et al., (2009) Interdiscip Perspect Infect Dis, 2009, 190354). […] In the previous study the inventors identified 92 proteins that were differentially expressed or oxidized in chagasic plasma. Functional analysis allocated a majority of these proteins to inflammation/immunity and lipid metabolism categories, and to molecular pathways associated with cardiovascular dysfunction, e.g., myocardial infarction, hypertrophy, and fibrosis, and pulmonary embolism and hypertension. Some proteins in chagasic rats treated with PBN and/or BZ were allocated to curative pathways (immune regulation and cardiac remodeling). The 2D-GE results were validated by Western blotting. […] Increased plasma levels of GSN, MYL2, and VIM were directly correlated with the severity of cardiac disease in human chagasic patients. […] These findings have utility in diagnosing disease severity and designing suitable therapy for management of human chagasic patients.
Ingenuity Pathway Analysis (IPA) is a highly curated and comprehensive software used for the integration of proteins into networks and pathways with biological meaning (Thomas and Bonchev, (2010). Hum Genomics, 4, 353-360). Network analysis of the plasma proteome profile of chagasic rats identified four major sub-networks linked to host response to T. cruzi infection and disease development (Table V). The maximal numbers of the differentially expressed plasma proteins (19 proteins) in chagasic rats were associated with antigen presentation and inflammatory response category (Table V) and indicators of persistent inflammation, known to be of pathological significance in Chagas disease (Dhiman et al., (2009) Clinical and Vaccine Immunology, 16, 660-666; Tanowitz et al., (2009) Prog Cardiovasc Dis, 51, 524-539; Junqueira et al., (2010) Expert Rev Mol Med, 12, e29). Following functional analysis of the inflammation-associated proteins, 12 proteins (APOA1, APOE, C3, CFB, CFH, FGB, GSN, KRT10, PLG, SCG2, SERPINA1, and SERPINC1) were identified as being involved in immune cell trafficking and cell movement of leukocytes, granulocytes, phagocytes, neutrophils, and dendritic and antigen presenting cells. Some of the differentially expressed proteins in inflammation category were associated with activation (APOE, C3, CFH, GC and PLG), chemotaxis (C3, SCG2, SERPINA1, SERPINC1), and infiltration of leukocytes (APOA1, APOE, C3, PLG, KRT10) and neutrophils (C3, CFB, CFH, PLG). Up regulation of APOE, APOA1, APOH, GC and PLG in chagasic plasma was indicative of activation, binding and accumulation of macrophages in the disease state. Of the 19 differentially expressed inflammation-associated proteins, 11 proteins (APOE, C3, CFB, CFH, GSN, KRT10, SCG2, SERPINA1, SERPINC1, GC, and PLG) were carbonylated in chagasic plasma. […] Other proteins (APOE, C3, KRT3, and SCG2) were exposed to oxidation due to T. cruzi-induced, acute oxidative stress, but were normalized in expression and oxidation during the chronic phase.
Seventeen of the differentially expressed proteins in chagasic plasma, i.e., AFM, C4BPA, CACNA1D, DLGAP2, GC, KNG1, MUG1, MYLPF, MY05A, MY05B, PRPH, PZP, RAI14, and SCG2, were allotted to the lipid metabolism/molecular transport/small molecule biochemistry category (Table V) and functionally linked by IPA network analysis to lipid, fatty acid, and carbohydrate metabolism. A majority of the proteins in this category, i.e., ALB, APOA1, APOA4, APOE, APOH, C3, GC, GNAQ, MY05A, PLG, SCD2, SERPINA1, SERPINC1 and VIM, were linked to the synthesis, metabolism, transport, and modification of lipids and fatty acids, and to uptake and release or efflux of lipids, eicosanoids, and cholesterol. […]

[1] = plasma, RAP group (acute infection)

What does the source list for `CC(C)(C)/[N+]([O-])=C/c1ccccc1` [PBN]?
expression of inflammation-associated plasma proteins (acutely infected rats, APOE, CFH, PLG and SCG2): normalized or regulated the expression; expression of inflammation-associated plasma proteins (chronically infected rats, GC, GSN and PLG): normalized or regulated the expression; expression level of CFB, GSN, C3, and SERPINC1 (infected rats): partly regulated; Spot# 12, 180 Average Normalized Density × 100,000 [1]: 21.47; Spot# 34 Average Normalized Density × 100,000 [1]: 0.37; Spot# 37, 593 Average Normalized Density × 100,000 [1]: 14.38; Spot# 49, 673 Average Normalized Density × 100,000 [1]: 19.12; Spot# 52, 54, 302 Average Normalized Density × 100,000 [1]: 9.80; Spot# 53, 225 Average Normalized Density × 100,000 [1]: 8.76; Spot# 72 Average Normalized Density × 100,000 [1]: 18.10; Spot# 73, 705, 787 Average Normalized Density × 100,000 [1]: 46.94; Spot# 77 Average Normalized Density × 100,000 [1]: 16.3; Spot# 88 Average Normalized Density × 100,000 [1]: 74.61; Spot# 94 Average Normalized Density × 100,000 [1]: 1.84; Spot# 115, 123 Average Normalized Density × 100,000 [1]: 22.27; Spot# 149 Average Normalized Density × 100,000 [1]: 0.78; Spot# 153 Average Normalized Density × 100,000 [1]: 27.07; Spot# 177 Average Normalized Density × 100,000 [1]: 3.71; Spot# 181 Average Normalized Density × 100,000 [1]: 3.99; Spot# 184, 257, 328 Average Normalized Density × 100,000 [1]: 4.54; Spot# 207, 555 Average Normalized Density × 100,000 [1]: 13.23; Spot# 215 Average Normalized Density × 100,000 [1]: 1.73; Spot# 266 Average Normalized Density × 100,000 [1]: 0.75; Spot# 299 Average Normalized Density × 100,000 [1]: 1.92; Spot# 315 Average Normalized Density × 100,000 [1]: 6.24; Spot# 334 Average Normalized Density × 100,000 [1]: 0.61; Spot# 341 Average Normalized Density × 100,000 [1]: 0.59; Spot# 355, 359 Average Normalized Density × 100,000 [1]: 2.99; Spot# 382, 385, 378, 572, 578, 595 Average Normalized Density × 100,000 [1]: 33.76; Spot# 389 Average Normalized Density × 100,000 [1]: 37.55; Spot# 430 Average Normalized Density × 100,000 [1]: 22.40; Spot# 434, 678 Average Normalized Density × 100,000 [1]: 55.14; Spot# 439 Average Normalized Density × 100,000 [1]: 4.04; Spot# 452 Average Normalized Density × 100,000 [1]: 18.92; Spot# 464 Average Normalized Density × 100,000 [1]: 3.89; Spot# 479 Average Normalized Density × 100,000 [1]: 23.96; Spot# 493 Average Normalized Density × 100,000 [1]: 9.82; Spot# 515 Average Normalized Density × 100,000 [1]: 6.87; Spot# 524 Average Normalized Density × 100,000 [1]: 53.74; Spot# 551, 587, 908 Average Normalized Density × 100,000 [1]: 88.04; Spot# 559 Average Normalized Density × 100,000 [1]: 24.39; Spot# 571 Average Normalized Density × 100,000 [1]: 7.84; Spot# 576, 620 Average Normalized Density × 100,000 [1]: 18.08; Spot# 586, 614 Average Normalized Density × 100,000 [1]: 50.44; Spot# 592 Average Normalized Density × 100,000 [1]: 15.61; Spot# 604 Average Normalized Density × 100,000 [1]: 22.81; Spot# 606 Average Normalized Density × 100,000 [1]: 9.60; Spot# 627 Average Normalized Density × 100,000 [1]: 30.23; Spot# 638 Average Normalized Density × 100,000 [1]: 4.42; Spot# 649 Average Normalized Density × 100,000 [1]: 40.69; Spot# 651 Average Normalized Density × 100,000 [1]: 94.03; Spot# 655 Average Normalized Density × 100,000 [1]: 240.6; Spot# 672 Average Normalized Density × 100,000 [1]: 7.34; Spot# 676 Average Normalized Density × 100,000 [1]: 14.69; Spot# 691 Average Normalized Density × 100,000 [1]: 49.99; Spot# 715 Average Normalized Density × 100,000 [1]: 10.83; Spot# 724 Average Normalized Density × 100,000 [1]: 1.72; Spot# 728 Average Normalized Density × 100,000 [1]: 0.76; Spot# 733 Average Normalized Density × 100,000 [1]: 2.24; Spot# 740 Average Normalized Density × 100,000 [1]: 7.81; Spot# 745 Average Normalized Density × 100,000 [1]: 4.51; Spot# 749 Average Normalized Density × 100,000 [1]: 4.71; Spot# 766 Average Normalized Density × 100,000 [1]: 3.20; Spot# 779, 909 Average Normalized Density × 100,000 [1]: 5.45; Spot# 796 Average Normalized Density × 100,000 [1]: 9.97; Spot# 814 Average Normalized Density × 100,000 [1]: 0.60; Spot# 817 Average Normalized Density × 100,000 [1]: 12.14; Spot# 820, 1081 Average Normalized Density × 100,000 [1]: 4.59; Spot# 827 Average Normalized Density × 100,000 [1]: 17.91; Spot# 832 Average Normalized Density × 100,000 [1]: 6.23; Spot# 860 Average Normalized Density × 100,000 [1]: 3.06; Spot# 867 Average Normalized Density × 100,000 [1]: 2.56; Spot# 881 Average Normalized Density × 100,000 [1]: 13.92; Spot# 897 Average Normalized Density × 100,000 [1]: 4.82; Spot# 900 Average Normalized Density × 100,000 [1]: 25.94; Spot# 906 Average Normalized Density × 100,000 [1]: 49.40; Spot# 966 Average Normalized Density × 100,000 [1]: 53.33
